In patent publication US10189836B2, “Therapeutic compounds, compositions and methods of use thereof” (Genentech, Inc., priority 2015, dated 2019) one finds Ki data, which are given here for 15 molecules.

For test [1], the target named is isolated recombinant JAK1 kinase domain (Homo sapiens (Human), UniProt P23458). Briefly: JAK1 enzyme assay (Caliper LabChip, Ki). The format is biochemical. As to conditions: isolated recombinant JAK1 kinase domain, 1.5 nM enzyme, ATP 25 μM.
Test [2] addresses isolated recombinant JAK2 kinase domain (Homo sapiens (Human), UniProt O60674). Kind of test: JAK2 enzyme assay (Caliper LabChip, Ki). The format is biochemical. As to conditions: isolated recombinant JAK2 kinase domain, 0.2 nM enzyme, ATP 25 μM.

The structures appear in SMILES notation.

Sequence of isolated recombinant JAK2 kinase domain (O60674 849-1124): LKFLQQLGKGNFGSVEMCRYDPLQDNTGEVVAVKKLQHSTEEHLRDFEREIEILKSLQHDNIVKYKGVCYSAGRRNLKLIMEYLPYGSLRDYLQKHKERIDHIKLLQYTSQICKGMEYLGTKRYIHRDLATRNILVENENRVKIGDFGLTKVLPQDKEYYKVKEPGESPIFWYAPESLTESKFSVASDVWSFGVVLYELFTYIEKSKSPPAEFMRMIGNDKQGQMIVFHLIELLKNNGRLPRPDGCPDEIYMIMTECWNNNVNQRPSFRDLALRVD
Sequence of isolated recombinant JAK1 kinase domain (P23458 875-1153): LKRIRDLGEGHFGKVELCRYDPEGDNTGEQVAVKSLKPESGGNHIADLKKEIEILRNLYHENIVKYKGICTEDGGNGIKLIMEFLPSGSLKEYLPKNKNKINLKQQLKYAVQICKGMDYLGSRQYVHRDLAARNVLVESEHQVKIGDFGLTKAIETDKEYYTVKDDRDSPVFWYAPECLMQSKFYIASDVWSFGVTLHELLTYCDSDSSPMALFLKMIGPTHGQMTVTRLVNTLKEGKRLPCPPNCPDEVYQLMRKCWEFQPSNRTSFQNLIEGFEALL

On to `CN1CCN(C(=O)Cn2cc(Nc3nc4c(N5CC6CCC(C5)N6C(=O)N5CC(F)C5)cccn4n3)cn2)CC1` [Example 170, 2-[4-[[8-[8-(3-fluoroazetidine-1-carbonyl)-3,8-diazabicyclo[3.2.1]octan-3-yl]-[1,2,4]triazolo[1,5-a]pyridin-2-yl]amino]pyrazol-1-yl]-1-(4-methylpiperazin-1-yl)ethanone], for which the figures for the Ki in test [1] and in test [2] were 0.3 nM and 0.2 nM, respectively.
The like results for `CSC1CN(C(=O)N2C3CCC2CN(c2cccn4nc(Nc5cnn(CC(=O)N6CCN(C)CC6)c5)nc24)C3)C1` [Example 171, 1-(4-methylpiperazin-1-yl)-2-[4-[[8-[8-(3-methylsulfanylazetidine-1-carbonyl)-3,8-diazabicyclo[3.2.1]octan-3-yl]-[1,2,4]triazolo[1,5-a]pyridin-2-yl]amino]pyrazol-1-yl]ethanone] were, in that order, 1.3 nM and 2.9 nM.
Consider `CSC1CCN(C(=O)N2C3CCC2CN(c2cccn4nc(Nc5cnn(CC(=O)N6CCN(C)CC6)c5)nc24)C3)C1` (stereo not drawn) [Example 172, 1-(4-methylpiperazin-1-yl)-2-[4-[[8-[8-(3-methylsulfanylpyrrolidine-1-carbonyl)-3,8-diazabicyclo[3.2.1]octan-3-yl]-[1,2,4]triazolo[1,5-a]pyridin-2-yl]amino]pyrazol-1-yl]ethanone], for which the Ki was 0.6 nM in test [1] and 0.9 nM in test [2].
As for `CN1CCN(C(=O)Cn2cc(Nc3nc4c(N5CC6CCC(C5)N6C(=O)N5CC(F)(F)C5)cccn4n3)cn2)CC1` [Example 173, 2-[4-[[8-[8-(3,3-difluoroazetidine-1-carbonyl)-3,8-diazabicyclo[3.2.1]octan-3-yl]-[1,2,4]triazolo[1,5-a]pyridin-2-yl]amino]pyrazol-1-yl]-1-(4-methylpiperazin-1-yl)ethanone], the Ki in test [1] and in test [2] was 0.5 nM each time.
For the molecule `CN1CCN(C(=O)Cn2cc(Nc3nc4c(N5CC6CCC(C5)N6S(=O)(=O)CCCC(F)(F)F)cccn4n3)cn2)CC1` [Example 174, 1-(4-methylpiperazin-1-yl)-2-[4-[[8-[8-(4,4,4-trifluorobutylsulfonyl)-3,8-diazabicyclo[3.2.1]octan-3-yl]-[1,2,4]triazolo[1,5-a]pyridin-2-yl]amino]pyrazol-1-yl]ethanone], the Ki in test [1] worked out at 0.7 nM; in test [2], 1.1 nM.
Consider `CN1CCN(C(=O)Cn2cc(Nc3nc4c(N5CC6CCC(C5)N6S(=O)(=O)c5cccnc5)cccn4n3)cn2)CC1` [Example 175, 1-(4-methylpiperazin-1-yl)-2-[4-[[8-[8-(3-pyridylsulfonyl)-3,8-diazabicyclo[3.2.1]octan-3-yl]-[1,2,4]triazolo[1,5-a]pyridin-2-yl]amino]pyrazol-1-yl]ethanone], for which the Ki in test [1] was 0.6 nM; in test [2], 0.9 nM.
The like results for `CN1CCN(C(=O)Cn2cc(Nc3nc4c(N5CC6CCC(C5)N6S(=O)(=O)CCCC#N)cccn4n3)cn2)CC1` [Example 176, 4-[[3-[2-[[1-[2-(4-methylpiperazin-1-yl)-2-oxo-ethyl]pyrazol-4-yl]amino]-[1,2,4]triazolo[1,5-a]pyridin-8-yl]-3,8-diazabicyclo[3.2.1]octan-8-yl]sulfonyl]butanenitrile] were, in that order, 0.7 nM and 3.4 nM.
For `CN1CCN(C(=O)Cn2cc(Nc3nc4c(N5CC6CCC(C5)N6S(=O)(=O)C5CC5)cccn4n3)cn2)CC1` [Example 177, 2-[4-[[8-(8-cyclopropylsulfonyl-3,8-diazabicyclo[3.2.1]octan-3-yl)-[1,2,4]triazolo[1,5-a]pyridin-2-yl]amino]pyrazol-1-yl]-1-(4-methylpiperazin-1-yl)ethanone], the values for the inhibition constant Ki in test [1] and in test [2] were 2.1 nM and 7.5 nM, respectively.
On to `CN1CCN(C(=O)Cn2cc(Nc3nc4c(N5CC6CCC(C5)N6S(=O)(=O)C5CCCCC5)cccn4n3)cn2)CC1` [Example 178, 2-[4-[[8-(8-cyclohexylsulfonyl-3,8-diazabicyclo[3.2.1]octan-3-yl)-[1,2,4]triazolo[1,5-a]pyridin-2-yl]amino]pyrazol-1-yl]-1-(4-methylpiperazin-1-yl)ethanone; formic acid], for which the Ki in test [1] turned out to be 1.8 nM; in test [2] it was 1.5 nM.
Turning to `O=C(Cn1cc(Nc2nc3c(N4CC5CCC(C4)N5C(=O)CCC(F)(F)F)cccn3n2)cn1)N1CCC(N2CCn3nccc3C2)CC1` [Example 179, 1-[3-[2-[[1-[2-[4-(6,7-dihydro-4H-pyrazolo[1,5-a]pyrazin-5-yl)-1-piperidyl]-2-oxo-ethyl]pyrazol-4-yl]amino]-[1,2,4]triazolo[1,5-a]pyridin-8-yl]-3,8-diazabicyclo[3.2.1]octan-8-yl]-4,4,4-trifluoro-butan-1-one; formic acid], the Ki was determined as 1.6 nM in test [1] and 1.3 nM in test [2].
Regarding `CSC1CCN(C(=O)N2C3CCC2CN(c2cccn4nc(Nc5cnn(CC(=O)N6CCN(C)CC6)c5)nc24)C3)CC1` [Example 180, 1-(4-methylpiperazin-1-yl)-2-[4-[[8-[8-(4-methylsulfanylpiperidine-1-carbonyl)-3,8-diazabicyclo[3.2.1]octan-3-yl]-[1,2,4]triazolo[1,5-a]pyridin-2-yl]amino]pyrazol-1-yl]ethanone], the inhibition constant (Ki) in test [1] was 1.3 nM; in test [2] it was 2.6 nM.
The like results for `CN1CCN(C(=O)Cn2cc(Nc3nc4c(N5CC6CCC(C5)N6C(=O)N5CCC(C(F)(F)F)C5)cccn4n3)cn2)CC1` (stereo not drawn) [Example 181, 1-(4-methylpiperazin-1-yl)-2-[4-[[8-[8-(3-(trifluoromethyl)pyrrolidine-1-carbonyl]-3,8-diazabicyclo[3.2.1]octan-3-yl]-[1,2,4]triazolo[1,5-a]pyridin-2-yl]amino]pyrazol-1-yl]ethanone] were, in that order, 0.8 nM and 1.3 nM.
On to `CN1CCN(C(=O)Cn2cc(Nc3nc4c(N5CC6CCC(C5)N6C(=O)N5CCC(C#N)CC5)cccn4n3)cn2)CC1` [Example 182, 1-[3-[2-[[1-[2-(4-methylpiperazin-1-yl)-2-oxo-ethyl]pyrazol-4-yl]amino]-[1,2,4]triazolo[1,5-a]pyridin-8-yl]-3,8-diazabicyclo[3.2.1]octane-8-carbonyl]piperidine-4-carbonitrile], for which the figures for the Ki in test [1] and in test [2] were 0.6 nM and 0.9 nM, respectively.
As to `CN1CCN(C(=O)Cn2cc(Nc3nc4c(N5CC6CCC(C5)N6S(=O)(=O)Cc5ccc(C(F)(F)F)cc5)cccn4n3)cn2)CC1` [Example 184, 1-(4-methylpiperazin-1-yl)-2-[4-[[8-[8-([4-(trifluoromethyl)phenyl]methylsulfonyl]-3,8-diazabicyclo[3.2.1]octan-3-yl]-[1,2,4]triazolo[1,5-a]pyridin-2-yl]amino]pyrazol-1-yl]ethanone], the inhibitory constant (Ki) is 1 nM in test [1] and 2.3 nM in test [2].
As for `CSCCN1CCN(C(=O)Cn2cc(Nc3nc4c(N5CC6CCC(C5)N6C(=O)N5CC(C(F)(F)F)C5)cccn4n3)cn2)CC1` [Example 186, 1-[4-(2-methylsulfanylethyl)piperazin-1-yl]-2-[4-[[8-[8-(3-(trifluoromethyl)azetidine-1-carbonyl]-3,8-diazabicyclo[3.2.1]octan-3-yl]-[1,2,4]triazolo[1,5-a]pyridin-2-yl]amino]pyrazol-1-yl]ethanone; formic acid], the inhibition constant (Ki) in test [1] and in test [2] was 0.2 nM each time.

As usually defined, the Ki is the equilibrium dissociation constant of an inhibitor or competing ligand from its target.
